Test results published in PMC11500415, “Chemical inhibition of stomatal differentiation by perturbation of the master-regulatory bHLH heterodimer via an ACT-Like domain” (Nature Communications, 2024).
Where “and” joins values, the source holds several entries; their conditions need not be identical. Identical values can stand only once.

System: mute-2 seedlings expressing MUTEpro::MUTE-GFP, MUTEpro::MUTEE162A_E163A-GFP or MUTEpro::MUTER133A_R134A-GFP
Assay: Stomidazolone resistance of mute-2 seedlings expressing engineered MUTE-GFP
Assay type: in vivo, Arabidopsis
Experimental: Arabidopsis accession Columbia (Col-0) was used as wild-type. […] Their genotype and transcript reduction were confirmed. The presence of transgenes/mutant alleles were confirmed by genotyping. For liquid culture with Stomidazolone (AYSJ929, compound 3), the analogs (AYSJ1059 (compound 5) and AYSJ1061 (compound 6)), degraded compound lzx103 (compound 4), and SIM3* (compound 7), all compounds were dissolved in dimethyl sulfoxide (DMSO, Molecular biology grade, Fujifilm Wako, Japan 046-21981), Col-0 seeds were sown in 96-well plates (TL5003; True Line) containing 95 μL of 1/2 MS media containing 0.5% sucrose with rotary shaking at 140 rpm under continuous light at 22 °C. Five μL of compounds were dissolved in DMSO at 10 mM and diluted with liquid 1/2 MS media to 1 mM and added on 1-day-old seedlings (final concentration, 50 μM). Seedlings were incubated for 8 days, and at day 9 seedling abaxial cotyledons were observed through confocal microscopy. For liquid culture of scrm-D_S343 and scrm-D_S423, 1/2 MS liquid media without sucrose was used. For the solid culture, 0, 20, 50 or 100 μM Stomidazolone were solidified with low-melting agarose (5805S, PrimeGelTM Agarose LMT 1-20 K, TAKARA Bio). Briefly, 1/2 MS salt, 0.5% sucrose, and 0.8% low melting agarose were mixed in water and autoclaved. After cooling the medium at around 30 °C, Stomidazolone (500x, dissolved in DMSO) was added and poured into 90 mm petri dishes (Asnol Petri Dish JP φ90 x 15 mm, 3-1491-01, AS ONE). Col-0 seeds were sown on Stomidazolone-containing 1/2 MS agarose media and grown under continuous light for 9 days.
The following constructs for transgenic plants were generated in this study: MUTEpro::MUTE-GFP (pAH11), MUTEpro::MUTEE162AE163A-GFP (pHS133), MUTEpro::MUTER133AR134A-GFP (pHS134). The original MUTEpro::MUTE-GFP construct (pLJP155) was generated via a different cloning strategy with different antibiotics selection. We therefore re-generated the wild-type Three-way Gateway version of MUTEpro::MUTE-GFP (pAH11) as a control. MUTE genomic coding construct without stop codon (pAR205) and MUTE promoter construct (pAR202) were subjected to the Gateway reaction with R4pGWB504[56]. The wild-type MUTE-GFP lines with the identical R4pGWB504 backbone enable a proper comparison of phenotypic complementation. The mutant versions of MUTE constructs were generated in the same way after site-directed mutagenesis using Q5 Site-directed mutagenesis kit (NEB) and subjected to the Three-Way Gateway reaction after sequence confirmation. The constructs were then transformed into the Agrobacterium strain GV3101 and floral dipped into mute-2/+ plants. To construct CaMV35S::H2B-mScarlet-I3/pPZP211 (DKv1400), 35S promoter (35Sp::RFP-CenH3 with DKp665-DKp1254)[57], H2B-(SGGGG)2 linker (from DKv1200[58] with DKp2412-DKp2599), mScarlet-I3 (from codon optimized synthetic DNA for A. thaliana), Nos terminator (from DKv1200 with DKp1251-DKp2598) were amplified using KOD one polymerase (TOYOBO). The PCR products were assembled into BamHI/EcoRI-digested pPZP211[59] using the NEBuilder HiFi DNA Assembly (NEB). For detailed lists of oligo DNA and plasmid information, see Tables S5 and S6, respectively.
For quantitative analysis of the abaxial leaf epidermis, confocal images were taken on the days after germination as indicated in the Figure legends. Preparation of images was done as described previously[32],[70]. For counting epidermal cell types, stomatal density, stomatal precursor cells (meristemoids), total stomata-lineage cells (stomata and meristemoids) were calculated by counting cell types in an area of 0.4 mm^2 (0.63 mm × 0.63 mm) and plotted as per mm^2. A series of Z-stack confocal images was obtained to obtain images covering the epidermis and capturing GFP/YFP signal from the reporter lines. The area and the number of epidermal cells were quantified by using FIJI-ImageJ. Statistical analyses were performed using R ver. 4.0.2. […]

[1] = line AH11 Ln5, 20 μM Stomidazolone, cotyledon abaxial epidermis, individual seedlings
[2] = line HS133 Ln26, 20 μM Stomidazolone, cotyledon abaxial epidermis, individual seedlings
[3] = line HS134 Ln26, 20 μM Stomidazolone, cotyledon abaxial epidermis, individual seedlings
[4] = transgenic line AH11 Ln25, cotyledon abaxial epidermis, 20 μM Stomidazolone, individual seedlings
[5] = transgenic line HS133 Ln19, cotyledon abaxial epidermis, 20 μM Stomidazolone, individual seedlings
[6] = transgenic line HS134 Ln23, cotyledon abaxial epidermis, 20 μM Stomidazolone, individual seedlings

O=C1C(c2ccccc2)=NC(NS(=O)(=O)c2ccccc2)(c2ccccc2)N1S(=O)(=O)c1ccccc1 (centres unmarked) [Stomidazolone]
effect on numbers of stomata and meristemoids (in words) (20 μM, eight days, MUTEpro::MUTEE162A_E163A-GFP and MUTEpro::MUTER133A_R134A-GFP in mute-2): did not significantly affect the numbers of stomata and meristemoids
effect on number of stomata (in words) (20 μM, eight days, control MUTEpro::MUTE-GFP mute-2): significantly reduced the number of stomata
Meristemoid density [1]: 0 per mm2 and 2 per mm2 and 5 per mm2
Stomata Total density [1]: 165 per mm2 and 160 per mm2 and 190 per mm2 and 197 per mm2 and 136 per mm2 and 163 per mm2 and 180 per mm2
total (stomata and meristemoids) density [1]: 165 per mm2 and 163 per mm2 and 192 per mm2 and 199 per mm2 and 141 per mm2 and 182 per mm2
Meristemoid density [2]: 2 per mm2 and 0 per mm2 and 5 per mm2
Stomata Total density [2]: 279 per mm2 and 170 per mm2 and 177 per mm2 and 226 per mm2 and 425 per mm2 and 199 per mm2
total (stomata and meristemoids) density [2]: 282 per mm2 and 170 per mm2 and 180 per mm2 and 177 per mm2 and 226 per mm2 and 425 per mm2 and 182 per mm2 and 202 per mm2
Meristemoid density [3]: 0 per mm2 and 7 per mm2 and 29 per mm2 and 5 per mm2
Stomata density [3]: 279 per mm2 and 309 per mm2 and 190 per mm2 and 194 per mm2 and 272 per mm2 and 294 per mm2 and 367 per mm2 and 304 per mm2
total (stomata and meristemoids) density [3]: 279 per mm2 and 316 per mm2 and 197 per mm2 and 224 per mm2 and 272 per mm2 and 294 per mm2 and 367 per mm2 and 309 per mm2
Meristemoid density [4]: 0 per mm2 and 5 per mm2 and 2 per mm2
stomatal density [4]: 197 per mm2 and 216 per mm2 and 250 per mm2 and 287 per mm2 and 219 per mm2 and 182 per mm2 and 226 per mm2
total (stomata and meristemoids) density [4]: 197 per mm2 and 221 per mm2 and 253 per mm2 and 287 per mm2 and 219 per mm2 and 216 per mm2 and 182 per mm2 and 226 per mm2
Meristemoid density [5]: 0 per mm2 and 5 per mm2 and 2 per mm2 and 17 per mm2
stomatal density [5]: 267 per mm2 and 442 per mm2 and 316 per mm2 and 250 per mm2 and 209 per mm2 and 224 per mm2 and 437 per mm2 and 294 per mm2
total (stomata and meristemoids) density [5]: 267 per mm2 and 442 per mm2 and 321 per mm2 and 255 per mm2 and 209 per mm2 and 228 per mm2 and 440 per mm2 and 311 per mm2
Meristemoid density [6]: 0 per mm2 and 5 per mm2
stomatal density (Stomata Total) [6]: 345 per mm2 and 221 per mm2 and 180 per mm2 and 267 per mm2 and 479 per mm2 and 316 per mm2 and 207 per mm2 and 199 per mm2
total (stomata and meristemoids) density [6]: 345 per mm2 and 221 per mm2 and 185 per mm2 and 267 per mm2 and 479 per mm2 and 316 per mm2 and 211 per mm2 and 199 per mm2
